For the experiment, the system named is RAW264.7. The experiment can be described thus: Inhibitory effect on PGE-2 production in LPS-stimulated RAW264.7 cells. The class given is functional, cell-based. Conditions: Mus musculus.

As a reminder, the IC50 is the concentration needed to halve the response being measured. Read a low IC50 as greater potency.

A value given as a limit tells only on which side of the number the result lay.

Turning to `COc1cc(/C=C/c2cc(OC)c(OC)cc2OC)cc(OC)c1`, inhibition was half-maximal at 7.4 µM (IC50).

Consider `COc1cc(/C=C/c2cc(OC)cc(OC)c2)cc(OC)c1`, for which the concentration for half-maximal inhibition (IC50) is greater than 33.3 µM.

Regarding `Oc1ccc(/C=C/c2cc(O)cc(O)c2)cc1` [RESVERATROL], 4 µM corresponded to half-maximal inhibition (IC50).

Source of the values: ChEMBL document CHEMBL1147543, “Styrylheterocycles as a novel class inhibitor of cyclooxygenase-2-mediated prostaglandin E(2) production” (Bioorg Med Chem Lett, 2004).
